Measured values as given in US8802597B2, “Herbicidal pyrimidines” (E I du Pont de Nemours and Company, priority 2003, dated 2014).

Columns and labels:
Experiment in all cases: Test C pre/postemergence
Type in all cases: in vivo
[1] = tested on: Surinam grass (Brachiaria decumbens); conditions: Preemergence
In short: (§1)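 Rating scale 0–100: 0 means no effect, 100 complete control; taken visually 12 to 14 days post-treatment versus controls. Pre- and postemergence greenhouse applications, postemergence at 1- to 4-leaf stage, non-phytotoxic solvent with surfactant as carrier.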

[2] = tested on: cocklebur (Xanthium strumarium); conditions: Preemergence
In short: as §1

[3] = tested on: common (oilseed) sunflower (Helianthus annuus); conditions: Preemergence
In short: as §1

[4] = tested on: corn (Zea mays); conditions: Preemergence
In short: as §1

[5] = tested on: crabgrass (Digitaria sanguinalis); conditions: Preemergence
In short: as §1

[6] = tested on: eastern black nightshade (Solanum ptycanthum); conditions: Preemergence
In short: as §1

[7] = tested on: giant foxtail (Setaria faberii); conditions: Preemergence
In short: as §1

[8] = tested on: johnsongrass (Sorghum halepense); conditions: Preemergence
In short: as §1

[9] = tested on: kochia (Kochia scoparia); conditions: Preemergence, scale 0 to 100
In short: as §1

[10] = tested on: lambsquarters (Chenopodium album); conditions: Preemergence, 250 g ai/ha; scale 0 to 100
In short: as §1

[11] = tested on: morningglory (Ipomoea coccinea); conditions: Preemergence
In short: as §1

[12] = tested on: soybean (Glycine max); conditions: Preemergence
In short: as §1

[13] = 62 g ai/ha, scale 0 to 100, 0 no effect, 100 complete control

CCOC(=O)Cc1nc(C2CC2)nc(N=CN(C)C)c1Br [Compound 33]
40: Plant response rating, Corn ([4]; 500 g ai/ha, scale 0 to 100) | Plant response rating, Johnsongrass ([8]; 500 g ai/ha, scale 0 to 100)
70: Plant response rating, Sunflower ([3]; 125 g ai/ha, scale 0 to 100)
30: Plant response rating, Corn ([4]; 250 g ai/ha, scale 0 to 100) | Plant response rating, Soybean ([12]; 125 g ai/ha, scale 0 to 100)
95: Plant response rating, Cocklebur ([2]; 500 g ai/ha, scale 0 to 100) | Plant response rating, Nightshade ([6]; 250 g ai/ha, scale 0 to 100) | Plant response rating, Morningglory ([11]; 500 g ai/ha, scale 0 to 100)
50: Plant response rating, Nightshade ([6]; 125 g ai/ha, scale 0 to 100) | Plant response rating, Foxtail, Giant ([7]; 250 g ai/ha, scale 0 to 100) | Plant response rating, Foxtail, Giant ([7]; 500 g ai/ha, scale 0 to 100) | Plant response rating, Kochia ([9]; 250 g ai/ha) | Plant response rating, Kochia ([9]; 500 g ai/ha)
100: Plant response rating, Crabgrass ([5]; 250 g ai/ha, scale 0 to 100) | Plant response rating, Crabgrass ([5]; 500 g ai/ha, scale 0 to 100) | Plant response rating, Nightshade ([6]; 500 g ai/ha, scale 0 to 100)
5: Plant response rating, Johnsongrass ([8]; 125 g ai/ha, scale 0 to 100)
80: Plant response rating, Sunflower ([3]; 250 g ai/ha, scale 0 to 100) | Plant response rating, Soybean ([12]; 250 g ai/ha, scale 0 to 100)
0: Plant response rating, Surinam Grass [1, 13] | Plant response rating, Surinam Grass ([1]; 125 g ai/ha, scale 0 to 100) | Plant response rating, Surinam Grass ([1]; 250 g ai/ha, scale 0 to 100) | Plant response rating, Cocklebur [2, 13] | Plant response rating, Cocklebur ([2]; 125 g ai/ha, scale 0 to 100) | Plant response rating, Sunflower [3, 13] | Plant response rating, Corn [4, 13] | Plant response rating, Corn ([4]; 125 g ai/ha, scale 0 to 100) | Plant response rating, Crabgrass [5, 13] | Plant response rating, Nightshade [6, 13] | Plant response rating, Foxtail, Giant [7, 13] | Plant response rating, Johnsongrass [8, 13] | Plant response rating, Morningglory [11, 13] | Plant response rating, Soybean [12, 13]
85: Plant response rating, Lambsquarters [10] | Plant response rating, Morningglory ([11]; 125 g ai/ha, scale 0 to 100)
90: Plant response rating, Cocklebur ([2]; 250 g ai/ha, scale 0 to 100) | Plant response rating, Sunflower ([3]; 500 g ai/ha, scale 0 to 100) | Plant response rating, Morningglory ([11]; 250 g ai/ha, scale 0 to 100) | Plant response rating, Soybean ([12]; 500 g ai/ha, scale 0 to 100)
10: Plant response rating, Surinam Grass ([1]; 500 g ai/ha, scale 0 to 100) | Plant response rating, Foxtail, Giant ([7]; 125 g ai/ha, scale 0 to 100) | Plant response rating, Johnsongrass ([8]; 250 g ai/ha, scale 0 to 100)
20: Plant response rating, Crabgrass ([5]; 125 g ai/ha, scale 0 to 100)
